Source: the supplement of paper PMC10307832

Columns and labels:
Assay in all cases: relative viability (nuclei count vs DMSO), 5 days (fraction); higher = more cells survive
[1] = compound: NCC(=O)Nc1ccc(-n2nc(C(F)(F)F)cc2-c2ccc3c(ccc4ccccc43)c2)cc1 + CC1(C)CCC(c2ccc(Cl)cc2)=C(CN2CCN(c3ccc(C(=O)NS(=O)(=O)c4ccc(N[C@H](CCN5CCOCC5)CSc5ccccc5)c(S(=O)(=O)C(F)(F)F)c4)cc3)CC2)C1 [Navitoclax] (partner 0.5 µM)
Procedure, shortened: (§1)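 Relative viability equals treated-well nuclei counts divided by vehicle-well nuclei counts. Counts came from 4× images of lung cancer cell lines grown in 1536-well plates for 5 days after pin-tool dosing on the day after seeding. Dosing used one drug alone or a fixed anchor-drug dose plus five library-drug doses (not always all listed) in √10 steps, and values are medians of duplicate plates.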

[2] = compound: NCC(=O)Nc1ccc(-n2nc(C(F)(F)F)cc2-c2ccc3c(ccc4ccccc43)c2)cc1 + CC(=O)c1c(C)c2cnc(Nc3ccc(N4CCNCC4)cn3)nc2n(C2CCCC2)c1=O [Palbociclib] (partner 0.5 µM)
Procedure, shortened: as §1

kb NB 142-70 + Foretinib = compound: C1CSC2=C(C(=O)N1)SC3=C2C=C(C=C3)O [kb NB 142-70] + COc1cc2c(Oc3ccc(NC(=O)C4(C(=O)Nc5ccc(F)cc5)CC4)cc3F)ccnc2cc1OCCCN1CCOCC1 [Foretinib] (partner 0.25 µM)
Procedure, shortened: as §1

[3] = compound: NCC(=O)Nc1ccc(-n2nc(C(F)(F)F)cc2-c2ccc3c(ccc4ccccc43)c2)cc1 + Nc1ncn([C@H]2C[C@H](O)[C@@H](CO)O2)c(=O)n1 [Decitabine] (partner 2 µM)
Procedure, shortened: as §1

| Cell Line | relative viability ([1]; first compound 0.02 µM) | relative viability ([1]; first compound 0.06325 µM) | relative viability ([1]; first compound 0.2 µM) | relative viability ([1]; first compound 0.6325 µM) | relative viability ([1]; first compound 2 µM) | relative viability ([2]; first compound 0.02 µM) | relative viability ([2]; first compound 0.06325 µM) | relative viability ([2]; first compound 0.2 µM) | relative viability ([2]; first compound 0.6325 µM) | relative viability ([2]; first compound 2 µM) | relative viability (kb NB 142-70 + Foretinib; first compound 0.1 µM) | relative viability (kb NB 142-70 + Foretinib; first compound 1 µM) | relative viability (kb NB 142-70 + Foretinib; first compound 3.162 µM) | relative viability ([3]; first compound 0.02 µM) | relative viability ([3]; first compound 0.06325 µM) | relative viability ([3]; first compound 0.2 µM) | relative viability ([3]; first compound 0.6325 µM) | relative viability ([3]; first compound 2 µM) |
| --- | --- | --- | --- | --- | --- | --- | --- | --- | --- | --- | --- | --- | --- | --- | --- | --- | --- | --- |
| HCC-827 | 0.992 | 1.04 | 1.06 | 1.06 | 1.01 | 0.501 | 0.545 | 0.509 | 0.486 | 0.504 | 1.08 | 0.981 | 0.852 | 0.315 | 0.212 | 0.31 | 0.309 | 0.335 |
| HOP-62 | 1.06 | 1.01 | 0.996 | 0.91 | 1.08 | 0.453 | 0.384 | 0.42 | 0.452 | 0.545 | 1.19 | 1.18 | 1.02 | 0.214 | 0.228 | 0.225 | 0.206 | 0.192 |
| IA-LM | 0.814 | 0.808 | 0.898 | 0.86 | 0.827 | – | – | – | – | – | 1.31 | 1.34 | 1.37 | – | – | – | – | – |
| LC-2-ad | 0.456 | 0.44 | 0.484 | 0.492 | 0.535 | 0.507 | 0.462 | 0.463 | 0.469 | 0.473 | 0.977 | 0.953 | 0.668 | 0.808 | 0.779 | 0.831 | 0.789 | 0.774 |
| LCLC-97TM1 | 0.321 | 0.422 | – | 0.359 | 0.393 | 0.249 | 0.205 | 0.22 | 0.233 | 0.199 | 1.01 | 0.883 | 0.606 | 0.237 | 0.24 | 0.252 | 0.19 | 0.221 |
| LCLC-103H | – | – | – | – | – | 0.41 | 0.503 | 0.483 | 0.413 | 0.504 | 0.715 | 0.744 | 0.815 | 0.735 | 0.742 | 0.809 | 0.763 | 0.748 |
| LK-2 | 1.02 | 0.862 | 0.961 | 0.853 | 0.757 | 0.538 | 0.831 | 0.539 | 0.675 | 0.636 | 1.15 | 1.07 | 0.819 | 0.283 | 0.268 | 0.249 | 0.319 | 0.278 |
| LOU-NH91 | 0.74 | 0.755 | 0.722 | 0.673 | 0.804 | 0.647 | 0.519 | 0.528 | 0.541 | 0.582 | 0.898 | 0.889 | 0.829 | 0.836 | 0.829 | 0.816 | 0.849 | 0.84 |
| LU99A | 0.756 | 0.799 | 0.87 | 0.891 | 0.824 | 0.418 | 0.474 | 0.434 | 0.487 | 0.438 | 0.781 | 0.765 | 0.569 | 0.817 | 0.987 | 0.838 | 0.843 | 0.91 |
| LXF-289 | 0.918 | 0.977 | 0.943 | 0.954 | 0.861 | 0.591 | 0.599 | 0.59 | 0.588 | 0.628 | 0.973 | 1.01 | 0.813 | 0.376 | 0.388 | 0.371 | 0.416 | 0.333 |
| NCI-H358 | – | – | – | – | – | 0.158 | 0.111 | 0.136 | 0.122 | 0.145 | 0.57 | 0.521 | 0.101 | 0.217 | 0.211 | 0.224 | 0.206 | 0.217 |
| NCI-H522 | – | – | – | – | – | 0.844 | 0.996 | 0.998 | 0.934 | 0.992 | – | – | – | 0.638 | 0.619 | 0.673 | 0.681 | 0.608 |
| NCI-H596 | 0.593 | 0.968 | 1.04 | 1.1 | 0.841 | – | – | – | – | – | 0.887 | 0.866 | 0.89 | 1.13 | 1.01 | 1.07 | 0.995 | 1.12 |
| NCI-H650 | – | – | – | – | – | 0.377 | 0.315 | 0.329 | 0.358 | 0.296 | 1.02 | 1.06 | 0.851 | 0.34 | 0.295 | 0.443 | 0.315 | 0.367 |
| NCI-H661 | – | – | – | – | – | 0.412 | 0.402 | 0.39 | 0.416 | 0.433 | 0.996 | 1.02 | 1.01 | 0.507 | 0.592 | 0.524 | 0.579 | 0.572 |
| NCI-H1299 | 1.02 | 1.06 | 1.09 | 1.04 | 1.07 | – | – | – | – | – | 1.08 | 1.12 | 1.11 | – | – | – | – | – |
| NCI-H1563 | – | – | – | – | – | – | – | – | – | – | 0.95 | 0.986 | 0.935 | – | – | – | – | – |
| NCI-H1623 | – | – | – | – | – | – | – | – | – | – | 0.932 | 0.843 | 0.722 | – | – | – | – | – |
| NCI-H1648 | – | – | – | – | – | 0.283 | 0.267 | 0.268 | 0.281 | 0.264 | – | – | – | 0.577 | 0.515 | 0.479 | 0.549 | 0.445 |
| NCI-H1703 | 1.07 | 1.06 | 1.35 | 1 | 1.51 | – | – | – | – | – | 0.351 | 0.338 | 0.346 | – | – | – | – | – |
| NCI-H1792 | 0.694 | 0.722 | 0.617 | 0.693 | 0.617 | 0.651 | – | 0.696 | 0.591 | 0.66 | – | – | – | 0.705 | 0.569 | 0.479 | 0.605 | 0.582 |
| NCI-H2228 | 1.14 | 1.16 | 0.918 | 0.976 | 0.809 | 0.711 | 0.78 | 0.802 | 0.653 | 0.656 | 0.956 | 0.939 | 0.543 | – | – | – | – | – |
| NCI-H2342 | – | – | – | – | – | 0.627 | 0.552 | 0.479 | 0.494 | 0.523 | 0.96 | 1.03 | 0.978 | 0.653 | 0.775 | 0.788 | 0.709 | 0.744 |
| SW 900 | – | – | – | – | – | 0.513 | 0.661 | 0.534 | 0.535 | 0.641 | 1.06 | 1.2 | 0.436 | 0.43 | 0.452 | 0.607 | 0.406 | 0.444 |
